Reference: patent publication US20130023555A1, “KINASE INHIBITOR WITH IMPROVED SOLUBILITY PROFILE” (Abbott Laboratories, priority 2011, published 2013)

Assays:
[1] = target: T1, Aurora A (Homo sapiens, UniProt O14965); experiment: Aurora A enzyme assay (time-resolved fluorescence); type: biochemical; conditions: 1 mM ATP
T1 sequence (O14965 1-403): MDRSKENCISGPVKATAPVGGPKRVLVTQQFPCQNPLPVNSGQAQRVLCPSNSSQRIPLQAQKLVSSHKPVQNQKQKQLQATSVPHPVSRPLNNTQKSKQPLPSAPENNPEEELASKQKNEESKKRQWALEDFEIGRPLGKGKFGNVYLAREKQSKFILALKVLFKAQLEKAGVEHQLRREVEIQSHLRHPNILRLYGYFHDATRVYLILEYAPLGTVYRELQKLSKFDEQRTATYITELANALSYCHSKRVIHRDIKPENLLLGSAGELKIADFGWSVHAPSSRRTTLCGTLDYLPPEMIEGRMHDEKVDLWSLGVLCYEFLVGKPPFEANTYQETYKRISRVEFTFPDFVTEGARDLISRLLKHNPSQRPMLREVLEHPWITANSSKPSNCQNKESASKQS
Protocol: After 1 hour, the reaction was stopped with EDTA and anti-phospho-STK antibody Europium Cryptate (Upstate) and SA-XL665 (Upstate) were added to detect the phosphopeptide. The amount of phosphorylation was determined by the time-resolved fluorescence ratio of signals at 665 nm and 615 nm. The IC50s were calculated by an exponential fit of the inhibition values with the inhibitor concentrations using Assay Explorer software.

[2] = target: T2, FLT1 (Homo sapiens, UniProt P17948); experiment: HTRF in vitro kinase assay, FLT1; type: biochemical; conditions: 1 mM ATP
T2 construct: His6
T2 sequence (P17948 786-1338 limits assumed): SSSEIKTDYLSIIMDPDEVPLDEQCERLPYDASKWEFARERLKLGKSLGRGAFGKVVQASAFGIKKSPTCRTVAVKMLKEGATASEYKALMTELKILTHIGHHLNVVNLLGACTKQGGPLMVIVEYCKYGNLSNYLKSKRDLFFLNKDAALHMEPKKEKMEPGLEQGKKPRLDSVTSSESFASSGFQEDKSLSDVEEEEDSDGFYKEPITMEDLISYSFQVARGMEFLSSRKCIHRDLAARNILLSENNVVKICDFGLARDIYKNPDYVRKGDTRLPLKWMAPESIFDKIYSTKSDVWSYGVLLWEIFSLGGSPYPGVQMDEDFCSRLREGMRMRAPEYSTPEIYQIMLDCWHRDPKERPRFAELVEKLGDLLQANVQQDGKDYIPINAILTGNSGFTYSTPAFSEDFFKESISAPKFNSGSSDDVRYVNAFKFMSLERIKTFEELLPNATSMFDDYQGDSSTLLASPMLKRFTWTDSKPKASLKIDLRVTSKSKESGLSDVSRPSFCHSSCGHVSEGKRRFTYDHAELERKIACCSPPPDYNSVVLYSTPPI
Protocol: To determine the activity of the various kinases, a homogenous time-resolved fluorescence (HTRF) in vitro kinase assay was used. (Mathis, G., HTRF(R) Technology. J Biomol Screen, 1999. 4(6): p. 309-314; Alfred J. Kolb, Paul V. Kaplita, David J. Hayes, Young-Whan Park, Christine Pernell, John S. Major and Gerard Mathis, Drug Discovery Today, 1998, 3, 333-342.)
For example for KDR, cKIT, FLT1, CSF1R and FTL3, purified enzyme was mixed with 0.5 μM N-biotinylated substrate (Biotin-Ahx-[…]-amide (SEQ. ID. 1)), various concentrations of inhibitor in reaction buffer (50 mM HEPES, pH 7.1, 10 mM MgCl2, 2 mM MnCl2, 0.1% BSA and 1 mM DTT, 40 μL final volume), ATP (1 mM final conc.) in a black 384-well plate. […] The quenched reaction was allowed to stand at room temperature for 3 hours and was then read in a time-resolved fluorescence detector (InVision, Perkin-Elmer) at 620 nm and 665 nm sequentially with excitation. The ratio between the signal of 620 nm and 665 nm was used in the calculation of the IC50.

CNC(=O)c1cnc(N)c2c(-c3ccc(NC(=O)Nc4cccc(C)c4)cc3)csc12 [Example 2, 4-amino-N-methyl-3-(4-{[(3-methylphenyl)carbamoyl]amino}phenyl)thieno[3,2-c]pyridine-7-carboxamide]
IC50 [1]: 58 nM | IC50 [2]: 2 nM
